Measurements published in article PMC12655637, “Design, Synthesis, and Mechanistic Study of Novel Ciprofloxacin/Thiazole Chalcone Hybrids as Potential Anticancer Agents” (Pharmaceuticals, 2025).
Where “and” joins values, the source holds several entries; their conditions need not be identical. Equal values may be shown once.

Assays:
[1] = system: leukemia HL-60, RPMI-8226, and colon HCT-116 cells; test: Antiproliferative activity, IC50 range over three cell lines; format: cell-based; settings: Homo sapiens; range over HL-60, RPMI-8226 and HCT-116
[2] = In vitro cytotoxicity against normal cell line WI 38; format: cell-based; settings: human, WI-38 normal cell line; for viability at 0.4 µM: WI38, 0.4uM; for viability at 1.6 µM: WI38, 1.6uM; for viability at 6.3 µM: WI38, 6.3uM; for viability at 25 µM: WI38, 25uM; for viability at 100 µM: WI38, 100uM; for IC50: ± SEM
Excerpt: Detailed results of cytotoxicity of compounds 4b and 4d against normal cell
Blank CC Sample No. 4b/WI38 sample no. 4d/WI38
conc. viability conc. viability

[3] = system: colon HCT116 cells; test: Annexin V-FITC/PI apoptosis and necrosis assay; format: cell-based, human; settings: HCT116 treated with IC50 concentration; for Apoptosis Late: DMSO 0.15%; for Apoptosis Early: DMSO 0.39%; for Apoptosis Total: DMSO 0.54%; for Necrosis: DMSO 1.83%
[4] = system: UO-31; test: NCI-60 screening, five-dose, SRB; format: cell-based, human; settings: for GI50 / IC50 / LC50 (concentration killing 50% of cells): Homo sapiens
[5] = system: Non-Small-Cell Lung Cancer cell lines; test: NCI five-dose testing, subpanel (MID b, selectivity); settings: for SI: full-panel MG-MID / subpanel MG-MID, Non-Small-Cell Lung Cancer; for MG-MID: mean activity across subpanel Non-Small-Cell Lung Cancer
Excerpt: (§1) The log10 GI50, log10 TGI, and log10 LC50 values were subsequently calculated as the averages of the log10 values of the respective individual GI50, TGI, and LC50 measurements. Negative numbers signified the most sensitive cell lines.
(§2) One way to measure a compound’s selectivity is to divide its subpanel MID^b (in μM) by the MID^a (in μM), which is the average sensitivity of all cell lines to the test agent.
(§3) At the National Cancer Institute (NCI) in Bethesda, USA, researchers examined the anticancer potential of the target compounds under investigation using nine panels of sixty different cell lines obtained from nine different cancers that were housed in the NCI library. […] The anticancer screening was carried out at a single dose of 10^−5 M; the results obtained were expressed as growth inhibition (%).
(§4) The anti-cancer potential of the tested compounds was evaluated at the National cancer institute (NCI), Bethesda, USA, against 9 panels of 60 various cell lines derived from nine human tumours available usually at NCI library. […] The anticancer screening was carried out at single dose of 10^-5 M. The results obtained as growth inhibition (%).
(§5) Cell lines were grown in Roswell Park Memorial Institute medium (RPMI) with 5% fetal bovine serum and 2% μM L-glutamine. Cancer cells are inoculated into 96 well microtiter plates in 100 μL at plating densities ranging from 5000 to 40,000 cells/well depending on the doubling time of individual cell lines. Then microtiter plates are incubated at 37 °C, 5% CO2, 95% air and 100% relative humidity for 24 h prior to the addition of the tested compounds. After 24 h, two plates of each cell line are fixed in situ with trichloroacetic acid (TCA). The tested compounds were dissolved in dimethyl sulfoxide (DMSO) and stored in the freezer prior to use. An aliquot of frozen drug concentrate is diluted to the desired concentration with complete medium containing 50 μg/mL gentamicin.
(§6) compounds were added to the microtiter plates followed by incubation for further 48 h at 37 °C, 5% CO2, 95% air and 100% relative humidity. Fixation of cancer cell lines is carried out through gentle addition of 50 μL of cold 50 %w/v TCA (final concentration, 10% TCA) then incubated for 60 min. at 4 °C. The plates are washed five times with tap water after getting rid of the supernatant and allowed to dry in air. Sulforhodamine B (SRB) solution (100 μL) at 0.4% w/v in 1% acetic

[6] = system: CNS Cancer cell lines; test: as above; settings: for SI: full-panel MG-MID / subpanel MG-MID, CNS Cancer; for MG-MID: mean activity across subpanel CNS Cancer
Excerpt: as §1, §2, §3, §4, §5, §6

[7] = system: Melanoma cell lines; test: as above; settings: for SI: full-panel MG-MID / subpanel MG-MID, Melanoma; for MG-MID: mean activity across subpanel Melanoma
Excerpt: as §1, §2, §3, §4, §5, §6

[8] = system: Ovarian Cancer cell lines; test: as above; settings: for SI: full-panel MG-MID / subpanel MG-MID, Ovarian Cancer; for MG-MID: mean activity across subpanel Ovarian Cancer
Excerpt: as §1, §2
(§7) At the National Cancer Institute (NCI) in Bethesda, USA, researchers examined the anticancer potential of the target compounds under investigation using nine panels of sixty different cell lines obtained from nine different cancers that were housed in the NCI library. Following the protocols laid out by the National Cancer Institute (https://dctd.cancer.gov/data-tools-biospecimens/data (accessed on 15 March 2023 and 6 January 2024)), the screening procedures were carried out [37]. The anticancer screening was carried out at a single dose of 10^−5 M; the results obtained were expressed as growth inhibition (%).
(§8) The anti-cancer potential of the tested compounds was evaluated at the National cancer institute (NCI), Bethesda, USA, against 9 panels of 60 various cell lines derived from nine human tumours available usually at NCI library. The procedures for the screening were described in details in NCI website (dttp://www.dtp.nci.nih.gov.) and were done according to NCI protocols. The anticancer screening was carried out at single dose of 10^-5 M. The results obtained as growth inhibition (%).
as §5, §6

[9] = system: Renal Cancer cell lines; test: as above; settings: full-panel MG-MID / subpanel MG-MID
Excerpt: as §1, §2, §7
The anti-cancer potential of the tested compounds was evaluated at the National cancer institute (NCI), Bethesda, USA, against 9 panels of 60 various cell lines derived from nine human tumours available usually at NCI library. The procedures for the screening were described in details in NCI website (dttp://www.dtp.nci.nih.gov.) and were done according to NCI protocols. […]

[10] = system: Prostate Cancer cell lines; test: as above; settings: for SI: full-panel MG-MID / subpanel MG-MID, PC (prostate); for MG-MID: mean activity across subpanel PC (prostate)
Excerpt: as §1, §2, §7, §8, §5, §6

[11] = system: Breast Cancer cell lines; test: as above; settings: for SI: full-panel MG-MID / subpanel MG-MID, Breast Cancer; for MG-MID: mean activity across subpanel Breast Cancer
Excerpt: as §1, §2, §7, §8, §5, §6

[12] = system: colon HCT116 cancer cell line; test: Cell cycle analysis, propidium iodide flow cytometry; settings: for Cell cycle arrest phase: HCT116; for DNA Content G2/M Phase / DNA Content S Phase / DNA Content G0-G1 Phase: HCT116 treated with IC50 concentration; for DNA Content G2/M Phase: DMSO 8.68%; for DNA Content S Phase: DMSO 27.03%; for DNA Content G0-G1 Phase: DMSO 64.29%
Procedure: The effect of compounds 4b and 4d on the cell cycle progression of the colon HCT-116 cell line was evaluated using a Propidium Iodide Flow Cytometry Kit to measure the DNA content, as per the reported protocols [39].
Cell cycle analysis and measurement of apoptotic potential
The effect of compound 4b and 4d on cell cycle progression of colon HCT-116 cell line was evaluated using Propidium Iodide Flow Cytometry Kit to measure the DNA content according to the reported protocols. The HCT116 cells used in this work were obtained from the American Type Culture Collection. Cells were cultured in DMEM (Invitrogen/Life Technologies) supplemented with 10% FBS (Hyclone), 10 µg/ml insulin (Sigma), and 1% penicillin-streptomycin. The remaining chemicals and reagents were all from Sigma or Invitrogen. Growth media was removed, cells washed with warm PBS and aspirated. Adhered cells were detached from media by addition of 5 ml 10% trypsin/EDTA and incubated 2 minutes in the incubator. The suspended cells harvested, aspirated to a falcon tube, centrifuged at 2000 rpm for 5 minutes. Cell count performed after suspending the cells into a fresh media and stained with trypan blue, counted and used for preparation of the appropriate number of cells.

[13] = system: Leukemia cancer cell lines; test: NCI five-dose testing, subpanel (GI50 range, MID b, selectivity); settings: for GI50: Homo sapiens; for SI: full-panel MG-MID / subpanel MG-MID, Leukemia; for MG-MID: mean activity across subpanel Leukemia
Excerpt: as §1, §2, §3, §4, §5, §6

[14] = system: Colon Cancer cell lines; test: as above; settings: for GI50: Homo sapiens; for SI: full-panel MG-MID / subpanel MG-MID, Colon Cancer; for MG-MID: mean activity across subpanel Colon Cancer
Excerpt: as §1, §2, §3, §4, §5, §6

[15] = molecular target: T1, Topoisomerase I (Homo sapiens, UniProt P11387); test: Topoisomerase I inhibition assay (ELISA kit of human DNA topoisomerase); settings: for TOPO I fld (fold of control): HCT116, control = 1; for Topoisomerase I % Inhibition: in comparison to negative control
T1 sequence (P11387 1-765): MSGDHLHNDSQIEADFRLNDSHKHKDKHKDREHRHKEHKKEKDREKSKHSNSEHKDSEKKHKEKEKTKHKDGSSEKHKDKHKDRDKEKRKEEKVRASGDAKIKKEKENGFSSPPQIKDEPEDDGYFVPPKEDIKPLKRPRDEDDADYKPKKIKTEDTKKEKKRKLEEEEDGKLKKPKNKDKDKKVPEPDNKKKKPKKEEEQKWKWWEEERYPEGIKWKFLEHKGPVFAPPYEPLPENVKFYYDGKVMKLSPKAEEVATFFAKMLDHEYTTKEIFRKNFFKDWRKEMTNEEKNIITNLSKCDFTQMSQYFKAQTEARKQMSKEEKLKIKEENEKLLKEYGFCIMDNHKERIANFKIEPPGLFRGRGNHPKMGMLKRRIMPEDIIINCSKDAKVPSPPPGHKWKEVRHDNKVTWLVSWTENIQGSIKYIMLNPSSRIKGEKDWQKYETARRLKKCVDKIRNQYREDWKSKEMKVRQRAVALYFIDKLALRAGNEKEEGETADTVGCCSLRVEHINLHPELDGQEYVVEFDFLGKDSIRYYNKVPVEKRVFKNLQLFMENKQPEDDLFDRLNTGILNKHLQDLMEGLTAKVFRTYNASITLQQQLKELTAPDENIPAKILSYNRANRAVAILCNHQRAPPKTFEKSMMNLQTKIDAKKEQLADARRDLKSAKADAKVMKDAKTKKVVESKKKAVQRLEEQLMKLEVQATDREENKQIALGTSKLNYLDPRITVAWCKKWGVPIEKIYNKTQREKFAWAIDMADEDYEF
Procedure: The assay was performed using a commercially available Topoisomerase I Drug Screening Kit (TopoGen, Inc., Cat. # TG1015-1, Buena Vista, CO, USA) according to the manufacturer’s instructions, with minor modifications.
Evaluation of Topoisomerase I/II inhibition
Two folds of serial dilution was accomplished after standards and the tested compounds were dissolved in sample diluent.
Horseradish peroxidase (HRP-avidin) and biotin-conjugated antibody were diluted 10 times each.
Each well received 100 μL of each concentration of the standard or test chemicals, which were then added and incubated at 37 °C for 60 min. After each well's liquid had been carefully removed,
incubated for 1 h at 37 °C. The microtiter plate was rinsed three times and given room to aspirate.
After that, the plate was incubated at 37 °C for 60 min with 100 μL of HRP-avidin solution added to each well. After that, the plate was aspirated and cleaned 5 times. Each well received 90 μL of TMB substrate, and the plate was incubated for 30 min. at 37 °C in a light-protected environment.
Finally, stop solution (50 μL) was loaded, and within 5 minutes, the absorbance at 450 nm was measured spectrophotometrically.

[16] = system: Bax; test: Relative gene expression by qRT-PCR in HCT-116; format: cell-based, human; settings: HCT116; untreated control = 1
[17] = system: caspase-3; test: Relative gene expression by qRT-PCR in HCT-116; format: cell-based, human; settings: HCT116; untreated control = 1
[18] = system: caspase-9; test: Relative gene expression by qRT-PCR in HCT-116; format: cell-based, human; settings: HCT116; untreated control = 1

For `Cc1nc(SCC(=O)N2CCN(c3cc4c(cc3F)c(=O)c(C(=O)O)cn4C3CC3)CC2)sc1C(=O)/C=C/c1cccc(Cl)c1` [Compound 4b, (E)-7-(4-(2-((5-(3-(3-Chlorophenyl)acryloyl)-4-methylthiazol-2-yl)thio)acetyl)piperazin-1-yl)-1-cyclopropyl-6-fluoro-4-oxo-1,4-dihydroquinoline-3-carboxylic Acid], the IC50 [1] was 0.3 to 3.7 µM, the viability at 0.4 µM [2] was 82.8% and the viability at 1.6 µM [2] was 71.8%. It also gave a viability at 6.3 µM [2] of 63.5%, a viability at 25 µM [2] of 52.9% and a viability at 100 µM [2] of 37.1%. For the same compound, the IC50 [2] was 26.8 ± 0.92 µM, the “Apoptosis Late” value [3] was 22.37% and the “Apoptosis Early” value [3] was 6.96%. For the same compound, the “Apoptosis Total” value [3] was 29.33%, the Necrosis [3] was 3.66% and the TGI [4] was 100.0 µM. For the same compound, the GI50 [4] was greater than 100 µM, the IC50 [4] was greater than 100 µM and the LC50 (concentration killing 50% of cells) [4] was greater than 100 µM. The SI [5] was 0.73, the MG-MID [5] was 96.35 µM and the SI [6] was 1.01. The MG-MID [6] was 69.63 µM, the SI [7] was 0.95 and the MG-MID [7] was 74.08 µM. The SI [8] was 0.77, the MG-MID [8] was 91.67 µM and the SI [9] was 1.5. The SI [10] was 0.70, the MG-MID [10] was 100.0 µM and the SI [11] was 1.04. The MG-MID [11] was 67.8 µM, the “Cell cycle arrest phase” value [12] was “G1 phase” and the “DNA Content G2/M Phase” value [12] was 2.92%. For the same compound, the “DNA Content S Phase” value [12] was 23.23%, the “DNA Content G0-G1 Phase” value [12] was 73.85% and the GI50 [13] was 0.2 to 12.9 µM. For the same compound, the SI [13] was 9.22, the MG-MID [13] was 7.62 µM and the GI50 [14] was 0.3 to 15.1 µM. For the same compound, the SI [14] was 2.18, the MG-MID [14] was 32.16 µM and the “TOPO I fld (fold of control)” value [15] was 0.227. For the same compound, the “Topoisomerase I % Inhibition” value [15] was 77.3%.
Work on `Cc1nc(SCC(=O)N2CCN(c3cc4c(cc3F)c(=O)c(C(=O)O)cn4C3CC3)CC2)sc1C(=O)/C=C/c1cccc(F)c1` [Compound 4d, (E)-1-Cyclopropyl-6-fluoro-7-(4-(2-((5-(3-(3-fluorophenyl)acryloyl)-4-methylthiazol-2-yl)thio)acetyl)piperazin-1-yl)-4-oxo-1,4-dihydroquinoline-3-carboxylic Acid] yielded an IC50 [1] of 0.3 to 3.7 µM, a viability at 0.4 µM [2] of 83.4% and a viability at 1.6 µM [2] of 72.8%. For the same compound, the viability at 6.3 µM [2] was 64.1%, the viability at 25 µM [2] was 52.9% and the viability at 100 µM [2] was 44%. For the same compound, the IC50 [2] was 41.2 ± 1.42 µM, the “Apoptosis Late” value [3] was 26.29% and the “Apoptosis Early” value [3] was 11.92%. For the same compound, the “Apoptosis Total” value [3] was 38.21%, the Necrosis [3] was 3.82% and the “Relative gene expression of Bax” value [16] was 5.58 fold and 5.577 fold. For the same compound, the “Relative gene expression of caspase-3” value [17] was 10.86 fold, the “Relative gene expression of caspase-9” value [18] was 4.2 fold and 4.214 fold and the TGI [4] was 100.0 µM. The GI50 [4] was greater than 100 µM, the IC50 [4] was greater than 100 µM and the LC50 (concentration killing 50% of cells) [4] was greater than 100 µM. It also gave an SI [5] of 0.81, an MG-MID [5] of 86.5 µM and an SI [6] of 0.97. It also gave an MG-MID [6] of 72.0 µM, an SI [7] of 0.89 and an MG-MID [7] of 79.00 µM. It also gave an SI [8] of 0.70, an MG-MID [8] of 100 µM and an SI [9] of 1.5. It also gave an SI [10] of 0.70, an MG-MID [10] of 100.0 µM and an SI [11] of 0.99. For the same compound, the MG-MID [11] was 71.1 µM, the “Cell cycle arrest phase” value [12] was “G1 phase” and the “DNA Content G2/M Phase” value [12] was 3.75%. For the same compound, the “DNA Content S Phase” value [12] was 18.33%, the “DNA Content G0-G1 Phase” value [12] was 77.92% and the GI50 [13] was 0.19 to 3.39 µM. The SI [13] was 24.6, the MG-MID [13] was 2.9 µM and the GI50 [14] was 0.52 to 4.9 µM. The SI [14] was 2.8, the MG-MID [14] was 25.3 µM and the “TOPO I fld (fold of control)” value [15] was 0.277. For the same compound, the “Topoisomerase I % Inhibition” value [15] was 72.3%.
